# Tested on: Malme-3M
# Experiment: Growth inhibition of human MALME-3M cells assessed as cell growth at 10 uM incubated for 48 hrs by sulforhodamine B assay relative to control
# Type: functional
# Details: read-out: Activity
row,Structure (SMILES),growth at 10 µM
1,O=C(Nc1cccc(-n2cc(-c3ccncc3)c(-c3cc(O)cc(Cl)c3)n2)c1)Nc1ccc(Cl)c(Cl)c1,-35.1%

# Tested on: PC-3
# Experiment: Growth inhibition of human PC3 cells assessed as cell growth at 10 uM incubated for 48 hrs by sulforhodamine B assay relative to control
# Type: functional
# Details: PC-3, 48 h, read-out: Activity
row,Structure (SMILES),growth at 10 µM
1,O=C(Nc1cccc(-n2cc(-c3ccncc3)c(-c3cc(O)cc(Cl)c3)n2)c1)Nc1ccc(Cl)c(Cl)c1,-1.66%

# Tested on: Hs-578T
# Experiment: Growth inhibition of human Hs578T cells assessed as cell growth at 10 uM incubated for 48 hrs by sulforhodamine B assay relative to control
# Type: functional
# Details: read-out: Activity
row,Structure (SMILES),growth at 10 µM
1,O=C(Nc1cccc(-n2cc(-c3ccncc3)c(-c3cc(O)cc(Cl)c3)n2)c1)Nc1ccc(Cl)c(Cl)c1,-6.42%

# Tested on: K562
# Experiment: Growth inhibition of human K562 cells assessed as cell growth at 10 uM incubated for 48 hrs by sulforhodamine B assay relative to control
# Type: functional
# Details: K562, 48 h, read-out: Activity
row,Structure (SMILES),growth at 10 µM
1,O=C(Nc1cccc(-n2cc(-c3ccncc3)c(-c3cc(O)cc(Cl)c3)n2)c1)Nc1ccc(Cl)c(Cl)c1,1.06%

# Tested on: SW-620
# Experiment: Growth inhibition of human SW620 cells assessed as cell growth at 10 uM incubated for 48 hrs by sulforhodamine B assay relative to control
# Type: functional
# Details: SW-620, 48 h, read-out: Activity
row,Structure (SMILES),growth at 10 µM
1,O=C(Nc1cccc(-n2cc(-c3ccncc3)c(-c3cc(O)cc(Cl)c3)n2)c1)Nc1ccc(Cl)c(Cl)c1,-33.8%

# Tested on: HL-60(TB)
# Experiment: Growth inhibition of human HL-60(TB) cells assessed as cell growth at 10 uM incubated for 48 hrs by sulforhodamine B assay relative to control
# Type: functional
# Details: HL-60, 48 h, read-out: Activity
row,Structure (SMILES),growth at 10 µM
1,O=C(Nc1cccc(-n2cc(-c3ccncc3)c(-c3cc(O)cc(Cl)c3)n2)c1)Nc1ccc(Cl)c(Cl)c1,-23.4%

# Tested on: SK-MEL-5
# Experiment: Growth inhibition of human SK-MEL-5 cells assessed as cell growth at 10 uM incubated for 48 hrs by sulforhodamine B assay relative to control
# Type: functional
# Details: SK-MEL-5, 48 h, read-out: Activity
row,Structure (SMILES),growth at 10 µM
1,O=C(Nc1cccc(-n2cc(-c3ccncc3)c(-c3cc(O)cc(Cl)c3)n2)c1)Nc1ccc(Cl)c(Cl)c1,-53%

# Tested on: U-251
# Experiment: Growth inhibition of human U251 cells assessed as cell growth at 10 uM incubated for 48 hrs by sulforhodamine B assay relative to control
# Type: functional
# Details: U-251, 48 h, read-out: Activity
row,Structure (SMILES),growth at 10 µM
1,O=C(Nc1cccc(-n2cc(-c3ccncc3)c(-c3cc(O)cc(Cl)c3)n2)c1)Nc1ccc(Cl)c(Cl)c1,-56.5%

# Tested on: OVCAR-4
# Experiment: Growth inhibition of human OVCAR4 cells assessed as cell growth at 10 uM incubated for 48 hrs by sulforhodamine B assay relative to control
# Type: functional
# Details: OVCAR-4, 48 h, read-out: Activity
row,Structure (SMILES),growth at 10 µM
1,O=C(Nc1cccc(-n2cc(-c3ccncc3)c(-c3cc(O)cc(Cl)c3)n2)c1)Nc1ccc(Cl)c(Cl)c1,10.7%

# Tested on: COLO 205
# Experiment: Growth inhibition of human COLO205 cells assessed as cell growth at 10 uM incubated for 48 hrs by sulforhodamine B assay relative to control
# Type: functional
# Details: COLO 205, 48 h, read-out: Activity
row,Structure (SMILES),growth at 10 µM
1,O=C(Nc1cccc(-n2cc(-c3ccncc3)c(-c3cc(O)cc(Cl)c3)n2)c1)Nc1ccc(Cl)c(Cl)c1,22.4%

# Tested on: T47D
# Experiment: Growth inhibition of human T47D cells assessed as cell growth at 10 uM incubated for 48 hrs by sulforhodamine B assay relative to control
# Type: functional
# Details: read-out: Activity
row,Structure (SMILES),growth at 10 µM
1,O=C(Nc1cccc(-n2cc(-c3ccncc3)c(-c3cc(O)cc(Cl)c3)n2)c1)Nc1ccc(Cl)c(Cl)c1,-5.53%

# Tested on: SNB-75
# Experiment: Growth inhibition of human SNB75 cells assessed as cell growth at 10 uM incubated for 48 hrs by sulforhodamine B assay relative to control
# Type: functional
# Details: SNB-75, 48 h, read-out: Activity
row,Structure (SMILES),growth at 10 µM
1,O=C(Nc1cccc(-n2cc(-c3ccncc3)c(-c3cc(O)cc(Cl)c3)n2)c1)Nc1ccc(Cl)c(Cl)c1,4.08%

# Tested on: M14
# Experiment: Growth inhibition of human M14 cells assessed as cell growth at 10 uM incubated for 48 hrs by sulforhodamine B assay relative to control
# Type: functional
# Details: M14, 48 h, read-out: Activity
row,Structure (SMILES),growth at 10 µM
1,O=C(Nc1cccc(-n2cc(-c3ccncc3)c(-c3cc(O)cc(Cl)c3)n2)c1)Nc1ccc(Cl)c(Cl)c1,-69.2%

# Tested on: MDA-MB-231
# Experiment: Growth inhibition of human MDA-MB-231 cells assessed as cell growth at 10 uM incubated for 48 hrs by sulforhodamine B assay relative to control
# Type: functional
# Details: MDA-MB-231, 48 h, read-out: Activity
row,Structure (SMILES),growth at 10 µM
1,O=C(Nc1cccc(-n2cc(-c3ccncc3)c(-c3cc(O)cc(Cl)c3)n2)c1)Nc1ccc(Cl)c(Cl)c1,-38.1%

# Tested on: SF-295
# Experiment: Growth inhibition of human SF295 cells assessed as cell growth at 10 uM incubated for 48 hrs by sulforhodamine B assay relative to control
# Type: functional
# Details: SF-295, 48 h, read-out: Activity
row,Structure (SMILES),growth at 10 µM
1,O=C(Nc1cccc(-n2cc(-c3ccncc3)c(-c3cc(O)cc(Cl)c3)n2)c1)Nc1ccc(Cl)c(Cl)c1,-50.5%

# Tested on: SF-539
# Experiment: Growth inhibition of human SF539 cells assessed as cell growth at 10 uM incubated for 48 hrs by sulforhodamine B assay relative to control
# Type: functional
# Details: SF-539, 48 h, read-out: Activity
row,Structure (SMILES),growth at 10 µM
1,O=C(Nc1cccc(-n2cc(-c3ccncc3)c(-c3cc(O)cc(Cl)c3)n2)c1)Nc1ccc(Cl)c(Cl)c1,-29%

# Tested on: A549
# Experiment: Growth inhibition of human A549/ATCC cells assessed as cell growth at 10 uM incubated for 48 hrs by sulforhodamine B assay relative to control
# Type: functional
# Details: A549, 48 h, read-out: Activity
row,Structure (SMILES),growth at 10 µM
1,O=C(Nc1cccc(-n2cc(-c3ccncc3)c(-c3cc(O)cc(Cl)c3)n2)c1)Nc1ccc(Cl)c(Cl)c1,3.96%
